{"source": "patent US20260224583A1", "about": "“COMPOSITIONS USEFUL FOR MODULATING SPLICING” (Skyhawk Therapeutics, Inc., priority 2023, published 2026)", "data": [{"test_system": "ATXN3 transcripts containing exon 4 (E4E5)", "experiment": "ATXN3 Quantitative Splicing Assay (qPCR, E4E5 primers/probe)", "type": "cell-based", "details": "Homo sapiens; SK-N-MC cells, 24 h treatment, 30 μM to 0.6 nM; read-out: ATXN3 Potency - Splicing E4E5 IC50", "experimental": "Human neuroblastoma SK-N-MC cells were plated in 384-well plates at 20,000 cells/well. Twenty-four hours after plating, cells were treated with compounds for 24 h at appropriate concentrations ranging from 30 μM to 0.6 nM (0.3% DMSO). Treated cells were lysed in 15 μL of lysis buffer, and cDNA was synthesized using the Fast Advanced Cells-to-Ct kit. Two μL of each cDNA was used in qPCR reactions to confirm the exon 4 skipped transcripts of ATXN3. A second set of primers/probe E4E5 was used to detect the transcripts containing exon 4. The third set of primers/probe E8E9 was used to detect total gene level of ATXN3. The qPCR reactions were prepared in 384-well plates in 10 μL volume, using TaqMan™ Fast Advanced Master Mix with primers and probes shown in the table below. Reactions were run in a Quant Studio 6 qPCR instrument with default settings.\nThe primers and probes are listed below in Table 3.", "units": {"IC50": "nM"}, "values": [{"compound": "C[C@H](F)[C@H](N)Cc1cc2c(NCc3ccco3)nc(Cl)nn2c1Br", "note": "[Compound 1, 6-((2R,3S)-2-amino-3-fluorobutyl)-7-bromo-2-chloro-N-(furan-2-ylmethyl)pyrrolo[2,1-f][1,2,4]triazin-4-amine]", "IC50": "0.01 to 100"}, {"compound": "C[C@H](F)[C@H](N)Cc1cc2c(NCc3ccco3)nc(Cl)nn2c1Cl", "note": "[Compound 2, 6-((2R,3S)-2-amino-3-fluorobutyl)-2,7-dichloro-N-(furan-2-ylmethyl)pyrrolo[2,1-f][1,2,4]triazin-4-amine]", "IC50": "101 to 500"}, {"compound": "N[C@@H](CF)Cc1cc2c(NCc3ccco3)nc(Cl)nn2c1Cl", "note": "[Compound 3, (R)-6-(2-amino-3-fluoropropyl)-2,7-dichloro-N-(furan-2-ylmethyl)pyrrolo[2,1-f][1,2,4]triazin-4-amine]", "IC50": "0.01 to 100"}, {"compound": "N[C@@H](CF)Cc1cc2c(NCc3ccco3)nc(Cl)nn2c1Br", "note": "[Compound 4, (R)-6-(2-amino-3-fluoropropyl)-7-bromo-2-chloro-N-(furan-2-ylmethyl)pyrrolo[2,1-f][1,2,4]triazin-4-amine]", "IC50": "0.01 to 100"}, {"compound": "N[C@@H](COC(F)F)Cc1cc2c(NCc3ccco3)nc(Cl)nn2c1Cl", "note": "[Compound 5, (R)-6-(2-amino-3-(difluoromethoxy)propyl)-2,7-dichloro-N-(furan-2-ylmethyl)pyrrolo[2,1-f][1,2,4]triazin-4-amine]", "IC50": "101 to 500"}, {"compound": "N[C@@H](COC(F)F)Cc1cc2c(NCc3ccco3)nc(Cl)nn2c1Br", "note": "[Compound 6, (R)-6-(2-amino-3-(difluoromethoxy)propyl)-7-bromo-2-chloro-N-(furan-2-ylmethyl)pyrrolo[2,1-f][1,2,4]triazin-4-amine]", "IC50": "101 to 500"}, {"compound": "COC[C@H](N)Cc1cc2c(NCc3ccco3)nc(Cl)nn2c1Cl", "note": "[Compound 7, (R)-6-(2-amino-3-methoxypropyl)-2,7-dichloro-N-(furan-2-ylmethyl)pyrrolo[2,1-f][1,2,4]triazin-4-amine]", "IC50": "101 to 500"}, {"compound": "COC[C@H](N)Cc1cc2c(NCc3ccco3)nc(Cl)nn2c1Br", "note": "[Compound 8]", "IC50": "101 to 500"}, {"compound": "C[C@H](N)Cc1cc2c(NCc3ccco3)nc(Cl)nn2c1Cl", "note": "[Compound 9]", "IC50": "0.01 to 100"}, {"compound": "C[C@H](N)Cc1cc2c(NCc3ccco3)nc(Cl)nn2c1Br", "note": "[Compound 10]", "IC50": "101 to 500"}, {"compound": "[2H]C([2H])([2H])OCC(N)Cc1cc2c(NCc3ccco3)nc(Cl)nn2c1Br", "note": "(centres unmarked) [Compound 11]", "IC50": "101 to 500"}, {"compound": "[2H]C([2H])([2H])OC[C@H](N)Cc1cc2c(NCc3ccco3)nc(Cl)nn2c1Cl", "note": "[Compound 12]", "IC50": "101 to 500"}, {"compound": "N[C@H](Cc1cc2c(NCc3ccco3)nc(Cl)nn2c1Br)CC1CC1", "note": "[Compound 13]", "IC50": "101 to 500"}, {"compound": "N[C@H](Cc1cc2c(NCc3ccco3)nc(Cl)nn2c1Br)CC(F)(F)F", "note": "[Compound 14]", "IC50": "101 to 500"}, {"compound": "N[C@@H](CCOC(F)(F)F)Cc1cc2c(NCc3ccco3)nc(Cl)nn2c1Br", "note": "[Compound 15]", "IC50": "101 to 500"}, {"compound": "N[C@@H](CCOC(F)F)Cc1cc2c(NCc3ccco3)nc(Cl)nn2c1Br", "note": "[Compound 16]", "IC50": "0.01 to 100"}, {"compound": "N[C@H](Cc1cc2c(NCc3ccco3)nc(Cl)nn2c1Cl)CC1CC1", "note": "[Compound 17]", "IC50": "101 to 500"}]}]}
